The record followed here is PubChem BioAssay (NCI).

Some test systems named below: HL-60(TB) leukemia; OVCAR-5 ovarian; RXF 393 renal; U251 CNS; OVCAR-3 ovarian; LOX IMVI melanoma; SR leukemia; HCC-2998 colon; MDA-MB-231 breast; OVCAR-4 ovarian.
Common to all, as to assay: NCI anticancer screen, dose series, 48 h

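Step 1: Grow cells in 96-well plates. Step 2: Expose to compound for 48 hours at 5 concentrations. Step 3: Interpolate endpoints linearly; if unreached, use highest concentration. At the GI50, growth is halved. TGI: concentration producing complete growth inhibition.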 Bounds are passed on as bounds.

As to `NC(=O)c1ccc(-c2c3ccccc3cc3c2ccc2ccccc23)cc1`, the GI50 in the assay with HL-60(TB) leukemia was 2.14 µM; in the assay with OVCAR-5 ovarian, 14.3 µM; in the assay on RXF 393 renal, 2.12 µM; in the assay with U251 CNS, 3.61 µM; in the assay on OVCAR-3 ovarian, 1.94 µM; in the assay with LOX IMVI melanoma, 4.86 µM. Besides, the GI50 in the assay with SR leukemia is 1.3 µM; with HCC-2998 colon, 5.22 µM; in the assay on MDA-MB-231 breast it was 3.91 µM; in the assay on OVCAR-4 ovarian, 5.79 µM. For the same molecule, the TGI was over 100 µM in the assay on HL-60(TB) leukemia; over 100 µM with OVCAR-5 ovarian; 7.48 µM in the assay on RXF 393 renal; 19 µM with U251 CNS; 6.98 µM in the assay with OVCAR-3 ovarian; 32.6 µM in the assay on LOX IMVI melanoma. Besides, the TGI in the assay with SR leukemia is over 100 µM; with HCC-2998 colon, 82.4 µM; in the assay with MDA-MB-231 breast it was 23.8 µM; in the assay with OVCAR-4 ovarian, 29.7 µM.
As to `Fc1ccc(-c2c(-c3ccncc3)n(CCN3CCOCC3)c3cccnc23)cc1`, the GI50 in the assay with HL-60(TB) leukemia, in the assay with OVCAR-5 ovarian, in the assay on RXF 393 renal, in the assay on U251 CNS, in the assay on OVCAR-3 ovarian and in the assay on LOX IMVI melanoma was over 25 µM throughout. Also, the GI50 with SR leukemia, in the assay with HCC-2998 colon, in the assay on MDA-MB-231 breast and in the assay on OVCAR-4 ovarian was over 25 µM throughout. The TGI in the assay on HL-60(TB) leukemia, in the assay on OVCAR-5 ovarian, in the assay on RXF 393 renal, in the assay with U251 CNS, with OVCAR-3 ovarian and in the assay on LOX IMVI melanoma was over 25 µM throughout. Further, the TGI in the assay on SR leukemia, with HCC-2998 colon, in the assay on MDA-MB-231 breast and in the assay with OVCAR-4 ovarian was over 25 µM each time.
For `C=C1C(=O)O[C@H]2[C@H](OC(C)=O)[C@@H](C)CCC/C(C)=C/CC[C@]3(CO3)[C@H](O)C[C@@H]12`, the GI50 in the assay with HL-60(TB) leukemia was 2.31 µM; in the assay on OVCAR-5 ovarian, 13.2 µM; in the assay with RXF 393 renal it was 3.16 µM; with U251 CNS, 3.71 µM; in the assay with OVCAR-3 ovarian, 2.36 µM; with LOX IMVI melanoma, 2.07 µM. Also, the GI50 in the assay with SR leukemia is 1.32 µM; in the assay on HCC-2998 colon, 15.2 µM; with MDA-MB-231 breast it was 5.25 µM; in the assay on OVCAR-4 ovarian, 6.89 µM. The TGI in the assay on HL-60(TB) leukemia came out at 5.63 µM; with OVCAR-5 ovarian, 26.5 µM; in the assay on RXF 393 renal, 11.7 µM; with U251 CNS, 12.4 µM; in the assay on OVCAR-3 ovarian, 5.69 µM; with LOX IMVI melanoma it was 4.75 µM. The TGI in the assay with SR leukemia was found to be 3.94 µM; with HCC-2998 colon, 28.4 µM; with MDA-MB-231 breast, 17.2 µM; in the assay with OVCAR-4 ovarian, 21.9 µM.
